Measured values reported in patent publication EP4707280A1, “1,4-CINEOLE DERIVATIVE AND INTERMEDIATE THEREOF, HERBICIDE CONTAINING SAID DERIVATIVE AS ACTIVE INGREDIENT, METHOD FOR USING HERBICIDE, AND METHOD FOR PREPARING AGROCHEMICAL COMPOSITION” (HOKKO CHEMICAL INDUSTRY CO., LTD., priority 2023, dated 2024).

Columns and labels:
Type in all cases: in vivo
Monochoria vaginalis [1] = assay: Test Example 5: herbicidal effect test by soil application in paddy rice (low dose); settings: Pontederia vaginalis, 336 h, 7.5 g per 10 ares, applied immediately after sowing, flooded pots, 14 days after application, read-out: weed inhibition rate
Method in brief: (§1)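 Pots of puddled, fertilized paddy soil receive 30 seeds per species at 0–1 cm depth and are flooded to about 3 cm. The diluted emulsifiable concentrate is then dropped onto the water, delivering 7.5 g active ingredient per 10 ares. Greenhouse grown; herbicidal effect scored 14 days later, two replicates.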

Scirpus juncoides [2] = assay: as above; settings: Schoenoplectiella juncoides, 336 h, 7.5 g per 10 ares, applied immediately after sowing, flooded pots, 14 days after application, read-out: weed inhibition rate
Method in brief: as §1

Monochoria vaginalis [3] = assay: Test Example 6: herbicidal effect test by application during growth period of paddy rice (low dose); settings: Pontederia vaginalis; 7.5 g per 10 ares; applied seven days after sowing, flooded pots; 14 days after application; read-out: weed inhibition rate
Method in brief: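 Low-dose water application, 7.5 g a.i. per 10 ares, given by dropper into flooded pots (about 3 cm depth) 7 days after sowing of 30 weed seeds each at 0–1 cm. Evaluation of inhibition (%) took place 14 days later, duplicate per rate.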

Digitaria ciliaris [4] = assay: Test Example 4: herbicidal effect test by stem and leaf treatment in upland field; settings: Digitaria ciliaris; 120 g per 10 ares; sprayed seven days after sowing, upland soil; 14 days after application; read-out: weed inhibition rate
Digitaria ciliaris [5] = assay: Test Example 3: herbicidal effect test by soil application in upland field; settings: Digitaria ciliaris, 120 g per 10 ares, sprayed one day after sowing, 14 days after application, read-out: weed inhibition rate
Method in brief: (§2)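 Pre-emergence test: seeds mixed into top 1 cm of alluvial loam upland soil in pots; emulsifiable concentrate diluted in water sprayed on soil one day after sowing at 100 L/10 a, 120 g a.i./10 a. Weed inhibition rate (%) scored at 14 days, in duplicate.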

Echinochloa crus-galli = assay: as above; settings: Echinochloa crus-galli, 120 g per 10 ares, sprayed one day after sowing, 14 days after application, read-out: weed inhibition rate
Method in brief: as §2

Scirpus juncoides [6] = assay: Test Example 1: herbicidal effect test by soil application in paddy rice; settings: 120 g active ingredient per 10 ares, applied immediately after sowing, flooded pots, 14 days after application; for pest or weed control at 1200 g/ha: Schoenoplectiella juncoides, soil, 336 h, read-out: weed inhibition rate
Method in brief: (§3)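 Paddy soil in Wagner pots (1/10,000 acre), fertilized and puddled; 30 seeds per species sown at 0–1 cm, flooded to ~3 cm, greenhouse. Water-diluted emulsifiable concentrate dropped onto flooded pots right after sowing at 120 g active ingredient per 10 ares.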

[7] = system: Echinochloa crus-galli var. formosensis; assay: as above; settings: 120 g active ingredient per 10 ares, applied immediately after sowing, flooded pots, 14 days after application; for pest or weed control at 1200 g/ha: Echinochloa crus-galli, soil, 336 h, read-out: weed inhibition rate
Method in brief: as §3

Amaranthus viridis = assay: Test Example 3: herbicidal effect test by soil application in upland field; settings: Amaranthus viridis, 120 g per 10 ares, sprayed one day after sowing, 14 days after application, read-out: weed inhibition rate
Method in brief: as §2

CC(C)[C@]12C[C@@H](OCc3ccccc3Cl)[C@](C)(C[C@@H]1Br)O2 [1-20, (1S,2R,4R,5S)-5-bromo-2-[(2-chlorophenyl)methoxy]-1-methyl-4-isopropyl-7-oxabicyclo[2.2.1]heptane]
≥ 80%: inhibition at 75 g/ha (Monochoria vaginalis [1]) | inhibition at 75 g/ha (Scirpus juncoides [2]) | inhibition at 75 g/ha (Monochoria vaginalis [3]) | inhibition at 1200 g/ha (Digitaria ciliaris [4]) | inhibition at 1200 g/ha (Digitaria ciliaris [5]) | inhibition at 1200 g/ha (Echinochloa crus-galli) | pest or weed control at 1200 g/ha (Scirpus juncoides [6]) | pest or weed control at 1200 g/ha [7]

CC(C)[C@]12C[C@@H](OCc3ccccc3F)[C@](C)(CC1C)O2 (stereo partly drawn) [1-92, (1S,2R,4R)-2-((2-fluorobenzyl)oxy)-4-isopropyl-1,5-dimethyl-7-oxabicyclo[2.2.1]heptane]
≥ 80%: inhibition at 75 g/ha (Monochoria vaginalis [1]) | inhibition at 75 g/ha (Scirpus juncoides [2]) | inhibition at 75 g/ha (Monochoria vaginalis [3]) | inhibition at 1200 g/ha (Digitaria ciliaris [4]) | inhibition at 1200 g/ha (Digitaria ciliaris [5]) | inhibition at 1200 g/ha (Echinochloa crus-galli) | pest or weed control at 1200 g/ha (Scirpus juncoides [6]) | pest or weed control at 1200 g/ha [7]

CC(C)[C@]12C[C@@H](OCc3ccccc3F)[C@](C)(C[C@H]1C)O2 [1-94, (1S,2R,4R,5R)-2-[(2-fluorophenyl)methoxy]-1,5-dimethyl-4-isopropyl-7-oxabicyclo[2.2.1]heptane]
≥ 80%: inhibition at 75 g/ha (Monochoria vaginalis [1]) | inhibition at 75 g/ha (Scirpus juncoides [2]) | inhibition at 75 g/ha (Monochoria vaginalis [3]) | inhibition at 1200 g/ha (Digitaria ciliaris [4]) | inhibition at 1200 g/ha (Digitaria ciliaris [5]) | inhibition at 1200 g/ha (Echinochloa crus-galli) | pest or weed control at 1200 g/ha (Scirpus juncoides [6]) | pest or weed control at 1200 g/ha [7]

CC(C)C1C[C@]2(C)O[C@@]1(C(C)C)C[C@H]2OCc1ccccc1F (stereo partly drawn) [1-133, (1S,2R,4R)-2-[(2-fluorobenzyl)oxy]-4,5-isopropyl-1-methyl-7-oxabicyclo[2.2.1]heptane]
≥ 80%: inhibition at 75 g/ha (Monochoria vaginalis [1]) | inhibition at 75 g/ha (Scirpus juncoides [2]) | inhibition at 75 g/ha (Monochoria vaginalis [3]) | inhibition at 1200 g/ha (Digitaria ciliaris [4]) | inhibition at 1200 g/ha (Digitaria ciliaris [5]) | inhibition at 1200 g/ha (Echinochloa crus-galli) | weed inhibition rate (Scirpus juncoides [6]) | weed inhibition rate [7]

CCOC(C)O[C@H]1C[C@]2(C)O[C@@]1(C(C)C)C[C@H]2OCc1ccccc1C (stereo partly drawn) [1-208, (1R,2S,4S,5R)-2-(1-ethoxyethoxy)-1-isopropyl-4-methyl-5-((2-methylbenzyl)oxy)-7-oxabicyclo[2.2.1]heptane]
≥ 80%: inhibition at 1200 g/ha (Digitaria ciliaris [4]) | inhibition at 1200 g/ha (Digitaria ciliaris [5]) | inhibition at 1200 g/ha (Amaranthus viridis) | inhibition at 1200 g/ha (Echinochloa crus-galli) | pest or weed control at 1200 g/ha (Scirpus juncoides [6]) | pest or weed control at 1200 g/ha [7]

CCOC(C)O[C@H]1C[C@]2(C)O[C@@]1(C(C)C)C[C@H]2OCc1c(F)cccc1F (stereo partly drawn) [1-223, (1S,2R,4R,5S)-2-((2,6-difluorobenzyl)oxy)-5-(1-ethoxyethoxy)-4-isopropyl-1-methyl-7-oxabicyclo[2.2.1]heptane]
≥ 80%: inhibition at 1200 g/ha (Digitaria ciliaris [4]) | inhibition at 1200 g/ha (Digitaria ciliaris [5]) | inhibition at 1200 g/ha (Amaranthus viridis) | inhibition at 1200 g/ha (Echinochloa crus-galli) | pest or weed control at 1200 g/ha (Scirpus juncoides [6]) | pest or weed control at 1200 g/ha [7]

CC(C)=CCO[C@@H]1C[C@]2(C(C)C)O[C@@]1(C)C[C@@H]2Br [1-672, (1S,2R,4R,5S)-5-bromo-1-methyl-2-(3-methylbut-2-enoxy)-4-isopropyl-7-oxabicyclo[2.2.1]heptane]
≥ 80%: inhibition at 75 g/ha (Monochoria vaginalis [1]) | inhibition at 75 g/ha (Scirpus juncoides [2]) | inhibition at 75 g/ha (Monochoria vaginalis [3]) | inhibition at 1200 g/ha (Digitaria ciliaris [4]) | inhibition at 1200 g/ha (Digitaria ciliaris [5]) | inhibition at 1200 g/ha (Amaranthus viridis) | inhibition at 1200 g/ha (Echinochloa crus-galli) | pest or weed control at 1200 g/ha [7]

CC(C)[C@]12C[C@@H](OCc3ccccc3Br)[C@](C)(C[C@@H]1Br)O2 [1-694, (1S,2R,4R,5S)-5-bromo-2-[(2-bromophenyl)methoxy]-1-methyl-4-isopropyl-7-oxabicyclo[2.2.1]heptane]
≥ 80%: inhibition at 75 g/ha (Monochoria vaginalis [1]) | inhibition at 75 g/ha (Monochoria vaginalis [3]) | inhibition at 1200 g/ha (Digitaria ciliaris [5]) | inhibition at 1200 g/ha (Amaranthus viridis) | inhibition at 1200 g/ha (Echinochloa crus-galli) | pest or weed control at 1200 g/ha [7]

CC(C)[C@]12C[C@@H](OCc3c(F)cccc3Cl)[C@](C)(C[C@@H]1Br)O2 [1-713, (1S,2R,4R,5S)-5-bromo-2-[(2-chloro-6-fluorophenyl)methoxy]-1-methyl-4-isopropyl-7-oxabicyclo[2.2.1]heptane]
≥ 80%: inhibition at 75 g/ha (Monochoria vaginalis [1]) | inhibition at 75 g/ha (Monochoria vaginalis [3]) | inhibition at 1200 g/ha (Digitaria ciliaris [4]) | inhibition at 1200 g/ha (Digitaria ciliaris [5]) | inhibition at 1200 g/ha (Echinochloa crus-galli) | pest or weed control at 1200 g/ha (Scirpus juncoides [6]) | pest or weed control at 1200 g/ha [7]

CC(C)[C@]12C[C@@H](OCc3cccs3)[C@](C)(C[C@@H]1Br)O2 [1-721, (1S,2R,4R,5S)-5-bromo-1-methyl-4-isopropyl-2-(thiophen-2-ylmethoxy)-7-oxabicyclo[2.2.1]heptane]
≥ 80%: inhibition at 75 g/ha (Monochoria vaginalis [1]) | inhibition at 75 g/ha (Scirpus juncoides [2]) | inhibition at 75 g/ha (Monochoria vaginalis [3]) | inhibition at 1200 g/ha (Digitaria ciliaris [5]) | inhibition at 1200 g/ha (Echinochloa crus-galli) | pest or weed control at 1200 g/ha (Scirpus juncoides [6]) | pest or weed control at 1200 g/ha [7]

CCCO[C@H]1C[C@]2(C)O[C@@]1(C(C)C)C[C@H]2OCc1ccccc1F [1-1604, (1S,2R,4R,SS)-2-[(2-fluorophenyl)methoxy]-1-methyl-4-isopropyl-5-propoxy-7-oxabicyclo[2.2.1]heptane]
≥ 80%: inhibition at 75 g/ha (Monochoria vaginalis [1]) | inhibition at 75 g/ha (Scirpus juncoides [2]) | inhibition at 75 g/ha (Monochoria vaginalis [3]) | inhibition at 1200 g/ha (Digitaria ciliaris [4]) | inhibition at 1200 g/ha (Digitaria ciliaris [5]) | inhibition at 1200 g/ha (Echinochloa crus-galli) | weed inhibition rate (Scirpus juncoides [6]) | weed inhibition rate [7]

CC(C)[C@]12C[C@@H](OCc3ccccc3Br)[C@](C)(CC1=O)O2 [2-13, (1R,4S,5R)-5-((2-bromobenzyl)oxy)-1-isopropyl-4-methyl-7-oxabicyclo[2.2.1]heptan-2-one]
≥ 80%: inhibition at 75 g/ha (Monochoria vaginalis [1]) | inhibition at 75 g/ha (Scirpus juncoides [2]) | inhibition at 75 g/ha (Monochoria vaginalis [3]) | inhibition at 1200 g/ha (Digitaria ciliaris [4]) | inhibition at 1200 g/ha (Digitaria ciliaris [5]) | inhibition at 1200 g/ha (Echinochloa crus-galli) | pest or weed control at 1200 g/ha (Scirpus juncoides [6]) | pest or weed control at 1200 g/ha [7]

CC(C)[C@]12C[C@@H](OCc3c(F)cccc3Cl)[C@](C)(CC1=O)O2 [2-28, (1R,4S,5R)-5-((2-chloro-6-fluorobenzyl)oxy)-1-isopropyl-4-methyl-7-oxabicyclo[2.2.1]heptan-2-one]
≥ 80%: inhibition at 75 g/ha (Monochoria vaginalis [1]) | inhibition at 75 g/ha (Scirpus juncoides [2]) | inhibition at 75 g/ha (Monochoria vaginalis [3]) | inhibition at 1200 g/ha (Digitaria ciliaris [4]) | inhibition at 1200 g/ha (Digitaria ciliaris [5]) | inhibition at 1200 g/ha (Echinochloa crus-galli) | pest or weed control at 1200 g/ha (Scirpus juncoides [6]) | pest or weed control at 1200 g/ha [7]

Cc1ccccc1CO[C@@H]1C[C@]2(C(C)C)O[C@@]1(C)C/C2=N\O [2-191, (1R,4S,5R,E)-1-isopropyl-4-methyl-5-((2-methylbenzyl)oxy)-7-oxabicyclo[2.2.1]heptan-2-one oxime]
≥ 80%: inhibition at 75 g/ha (Monochoria vaginalis [1]) | inhibition at 75 g/ha (Monochoria vaginalis [3]) | inhibition at 1200 g/ha (Digitaria ciliaris [4]) | inhibition at 1200 g/ha (Digitaria ciliaris [5]) | inhibition at 1200 g/ha (Echinochloa crus-galli) | pest or weed control at 1200 g/ha (Scirpus juncoides [6]) | pest or weed control at 1200 g/ha [7]
